Values quoted from earlier work as cited in US20190249218A1, “Method, Medium and Kit for Detecting Multiple Aminoglycoside Resistance Including 16S rRNA Methylase Mediated Resistance in Gram-Negative Bacteria” (priority 2016, published 2019).

Tests used:
[1] = tested on: aminoglycoside modifying enzymes such as the nucleotidyl, acetyl and phosphoryl enzymes; details: reference (12); cited from earlier work
[2] = tested on: 16S rRNA methylase producers; details: reference (13); cited from earlier work

## CN[C@@H]1[C@@H](O)[C@@H](O[C@@H]2[C@@H](O)[C@H](O[C@H]3OC(CNCCO)=CC[C@H]3N)[C@@H](N)C[C@H]2NC(=O)[C@@H](O)CCN)OC[C@]1(C)O [Plazomicin]
[1]
  activity against aminoglycoside modifying enzymes: active
[2]
  activity against 16S rRNA methylase producers: inactive
